Square brackets hold non-standard residues; d marks the D form. Peptide text beside a SMILES is read from it. * marks the point of attachment. Asu = N[C@@H](CCCCCC(=O)O)C(=O)O; NHOH = ON*

The term IC50 denotes the concentration that inhibits the measured activity by half. As a reminder, the Ki is a dissociation constant, usually derived from enzyme kinetics or from competition with a known ligand.

One assay addresses Histone deacetylase. Put plainly: Inhibition of Histone deacetylase in HeLa cell nuclear extracts by fluorescence-based assay. Also on record: species or system Homo sapiens.
A further assay deals with Histone deacetylase 1 (Homo sapiens, UniProt Q13547). Put plainly: Inhibition of human HDAC1.
For a further assay, the target named is T1, Histone deacetylase 8 (Homo sapiens, UniProt Q9BY41).
T1 sequence (Q9BY41 whole entry): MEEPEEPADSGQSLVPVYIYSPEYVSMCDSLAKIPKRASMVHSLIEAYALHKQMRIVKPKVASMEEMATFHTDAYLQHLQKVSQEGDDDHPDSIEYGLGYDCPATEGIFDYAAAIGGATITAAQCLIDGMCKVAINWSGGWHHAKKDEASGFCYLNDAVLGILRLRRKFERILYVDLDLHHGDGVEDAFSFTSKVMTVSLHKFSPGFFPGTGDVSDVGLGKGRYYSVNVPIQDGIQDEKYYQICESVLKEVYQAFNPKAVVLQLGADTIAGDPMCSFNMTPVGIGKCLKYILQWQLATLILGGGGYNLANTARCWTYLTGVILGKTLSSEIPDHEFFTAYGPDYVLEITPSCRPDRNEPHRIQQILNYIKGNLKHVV
The experiment in a line: Inhibition of human HDAC8.

Sequence of Histone deacetylase 1 (Q13547 whole entry): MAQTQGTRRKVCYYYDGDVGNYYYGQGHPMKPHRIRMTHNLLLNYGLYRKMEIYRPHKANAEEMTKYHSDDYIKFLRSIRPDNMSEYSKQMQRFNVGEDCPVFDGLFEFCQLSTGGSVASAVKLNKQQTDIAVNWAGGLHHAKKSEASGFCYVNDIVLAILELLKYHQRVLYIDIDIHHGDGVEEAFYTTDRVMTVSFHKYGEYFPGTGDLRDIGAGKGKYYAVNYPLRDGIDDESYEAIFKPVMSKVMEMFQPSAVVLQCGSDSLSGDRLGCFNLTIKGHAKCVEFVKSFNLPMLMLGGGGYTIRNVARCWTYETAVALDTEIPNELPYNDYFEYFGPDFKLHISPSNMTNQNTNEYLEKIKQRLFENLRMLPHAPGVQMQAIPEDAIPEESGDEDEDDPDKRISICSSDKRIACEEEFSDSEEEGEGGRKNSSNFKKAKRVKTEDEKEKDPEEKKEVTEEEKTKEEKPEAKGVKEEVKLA

In the case of `COC(=O)[C@@H]1Cc2cccc(c2)C[C@H](NC(C)=O)C(=O)N[C@@H](CCCCCC(=O)NO)C(=O)N1`, the half-inhibitory concentration (IC50) against Histone deacetylase was 0.046 µM; against Histone deacetylase 1 it was 0.057 µM; at Histone deacetylase 8, 0.231 µM. In addition, the figures for the inhibition constant (Ki) on Histone deacetylase, on Histone deacetylase 1 and at Histone deacetylase 8 were 0.01367 µM, 0.00415 µM and 0.00532 µM, respectively.
Consider `COC(=O)[C@H](Cc1ccccc1)NC(=O)[C@H](CCCCCC(=O)NO)NC(=O)[C@H](C)NC(C)=O` (Ac-Ala-[Asu](NHOH)-Phe-OMe), for which the IC50 was found to be 0.167 µM against Histone deacetylase and 0.174 µM at Histone deacetylase 1.
As for `COC(=O)C(Cc1cccc(C[C@H](NC(C)=O)C(=O)O)c1)NC(=O)[C@@H](N)CCCCCC(=O)NO` (stereo not given in full), the 50% inhibitory concentration (IC50) against Histone deacetylase turned out to be 8.1 µM; against Histone deacetylase 1, 40 µM.

(Values after ChEMBL document CHEMBL1147150, “Design and synthesis of a potent histone deacetylase inhibitor” (J Med Chem, 2007).)
